Data reported in patent US6541425B1, “Retarding formulations of active substances used for plant protection” (priority 1998, dated 2003).
≈ marks a conversion by molar mass, not a printed value.

What was measured:
[1] = Solubility in water of the active ingredients; assay type: physicochemical; conditions: for solubility: water

| Compound | Solubility in water [1] | solubility [1] | melting point |
| --- | --- | --- | --- |
| N-methylphenyl-2-((3-[E]-methoxyimino, 5-methyl, 2-[E]-oximino-hex-4-en-yl)methyl)-alpha-[E]-methoximinoacetamide [Compound 5] | 58 µg/mL |  |  |
| CNC(=O)/C(=N/OC)c1ccccc1CO/N=C(C)/C(=N/OC)OCC(C)C [Compound 3, N-methyl-2-[2-(2-isobutoxy-2-(Z)-methoxyimino-1-methyl-(E)-ethylideneaminooxymethyl)phenyl]-2-(E)-methoxyiminoacetamide] |  | 500 µg/mL (≈ 1.27 mM) | 68 °C |
| CNC(=O)/C(=N/OC)c1ccccc1CO/N=C(C)/C(=N/OC)OC(C)C [Compound 1, N-methyl-2-[2-(2-isopropoxy-2-(Z)-methoxyimino-1-methyl-(E)-ethylideneaminooxymethyl)phenyl]-2-(E)-methoxyiminoacetamide] |  | 1340 µg/mL (≈ 3.54 mM) | 57 °C |
| CNC(=O)/C(=N/OC)c1ccccc1CO/N=C(C)/C(=N/OC)C(/C)=N/OC [Compound 4, N-methylphenyl-2-((3,4-[E]-bis(methoximino), 2-[E]-oximinopentyl)methyl)-alpha-[E]-methoximinoacetamide] | 450 µg/mL (≈ 1.15 mM) |  |  |
| CCC(C)OC(=N\OC)/C(C)=N/OCc1ccccc1/C(=N\OC)C(=O)NC (centres unmarked) [Compound 2, N-methyl-2-[2-(2-sec-butoxy-2-(Z)-methoxyimino-1-methyl-(E)-ethylideneaminooxymethyl)phenyl]-2-(E)-methoxyiminoacetamide] |  | 1190 µg/mL (≈ 3.03 mM) | 48 to 50 °C |
